# Data reported in ChEMBL document CHEMBL4024786, “In Silico Fragment-Based Design Identifies Subfamily B1 Metallo-β-lactamase Inhibitors” (J Med Chem, 2018).
# Calls of active or inactive are those of the source. No cut-off for these calls is given here.
# Key:
# [1] = Inhibition of recombinant bacterial SPM-1 expressed in Escherichia coli BL21 (DE3) cells using FC5 as substrate preincubated for 10 mins prior to substrate addition by fluorescence-based assay; design: species or system Bacteria
# [2] = Inhibition of recombinant bacterial NDM-1 expressed in Escherichia coli BL21 (DE3) cells using imipenem as substrate in presence of Triton X-100 by spectrophotometric analysis; design: species or system Bacteria
# [3] = Inhibition of recombinant bacterial IMP-1 expressed in Escherichia coli BL21 (DE3) cells using FC4 as substrate preincubated for 10 mins prior to substrate addition in presence of Triton X-100 by fluorescence-based assay; design: species or system Bacteria
# Beta-lactamase TEM = Beta-lactamase TEM (Bacteria, UniProt P62593); assay: Inhibition of recombinant N-terminal His-tagged bacterial Escherichia coli TEM-1 (24 to 286 residues) expressed in Escherichia coli BL21 (DE3) cells using FC5 as substrate preincubated up to 360 mins prior to substrate addition by fluorescence-based assay
# Sequence of Beta-lactamase TEM (P62593 whole entry, the tested form may be a part): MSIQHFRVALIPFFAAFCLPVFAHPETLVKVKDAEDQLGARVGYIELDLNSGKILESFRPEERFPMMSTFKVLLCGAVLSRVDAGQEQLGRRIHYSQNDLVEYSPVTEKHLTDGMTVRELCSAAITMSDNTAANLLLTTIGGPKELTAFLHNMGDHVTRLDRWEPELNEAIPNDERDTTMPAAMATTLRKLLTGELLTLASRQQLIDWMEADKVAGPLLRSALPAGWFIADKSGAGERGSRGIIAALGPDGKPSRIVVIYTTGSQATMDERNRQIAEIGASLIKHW
# [4] = Inhibition of recombinant bacterial VIM-2 expressed in Escherichia coli BL21 (DE3) cells using FC4 as substrate preincubated for 10 mins prior to substrate addition in presence of Triton X-100 by fluorescence-based assay; design: species or system Bacteria
# [5] = Inhibition of recombinant bacterial Bc2 expressed in Escherichia coli BL21 (DE3) cells using FC5 as substrate preincubated for 10 mins prior to substrate addition by fluorescence-based assay; design: species or system Bacteria
# [6] = test system: Escherichia coli str. K-12 substr. MG1655; assay: Inhibition of NDM-1 in Escherichia coli MG1655 assessed as potentiation of meropenem induced antibacterial activity by measuring meropenem MIC at 100 ug/ml after 18 to 24 hrs by broth microdilution method (reference value: >128 ug/ml)
# [7] = target: Metallo-beta-lactamase type 2 (Klebsiella pneumoniae) (UniProt C7C422); assay: Inhibition of NDM-1 in Klebsiella pneumoniae ATCC 5055 assessed as potentiation of meropenem induced antibacterial activity by measuring meropenem MIC at 100 ug/ml after 18 to 24 hrs by broth microdilution method (reference value: >128 ug/ml)
# Sequence of Metallo-beta-lactamase type 2 (Klebsiella pneumoniae) (C7C422 whole entry): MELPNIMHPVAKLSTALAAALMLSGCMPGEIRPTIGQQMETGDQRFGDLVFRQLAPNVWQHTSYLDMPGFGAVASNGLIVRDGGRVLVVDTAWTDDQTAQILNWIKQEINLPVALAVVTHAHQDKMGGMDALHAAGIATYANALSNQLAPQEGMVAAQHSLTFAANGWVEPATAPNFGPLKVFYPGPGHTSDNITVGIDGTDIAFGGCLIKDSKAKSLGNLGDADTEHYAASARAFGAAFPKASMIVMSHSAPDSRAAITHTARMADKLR
# Bacteria = assay: Binding affinity to recombinant bacterial VIM-2 expressed in Escherichia coli BL21 (DE3) cells at 50 uM in presence of 4-(2,3-dichlorophenyl)-2-(sulfonylmethyl)benzoic acid by NMR method
# 5' exonuclease Apollo = target: T1, 5' exonuclease Apollo (Homo sapiens, UniProt Q9H816); assay: Inhibition of human DCLRE1B
# T1 sequence (Q9H816 whole entry): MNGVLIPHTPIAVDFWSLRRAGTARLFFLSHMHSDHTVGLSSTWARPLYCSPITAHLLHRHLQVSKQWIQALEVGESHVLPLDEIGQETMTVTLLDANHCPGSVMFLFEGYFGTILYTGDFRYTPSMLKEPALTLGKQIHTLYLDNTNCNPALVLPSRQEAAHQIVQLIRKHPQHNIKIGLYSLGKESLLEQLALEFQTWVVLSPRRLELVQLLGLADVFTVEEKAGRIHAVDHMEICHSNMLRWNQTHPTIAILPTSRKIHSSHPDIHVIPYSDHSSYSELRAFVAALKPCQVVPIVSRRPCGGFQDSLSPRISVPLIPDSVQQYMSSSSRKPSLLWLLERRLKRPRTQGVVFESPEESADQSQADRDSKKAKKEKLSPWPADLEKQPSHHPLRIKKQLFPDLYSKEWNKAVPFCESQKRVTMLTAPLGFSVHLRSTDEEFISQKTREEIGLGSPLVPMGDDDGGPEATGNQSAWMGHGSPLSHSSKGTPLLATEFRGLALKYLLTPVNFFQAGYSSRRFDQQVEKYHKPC
# Beta-lactamase OXA-10 = Beta-lactamase OXA-10 (Pseudomonas aeruginosa, UniProt P14489); assay: Inhibition of recombinant Pseudomonas aeruginosa OXA-10 expressed in Escherichia coli BL21 (DE3) cells using FC5 as substrate preincubated up to 360 mins prior to substrate addition by fluorescence-based assay
# Sequence of Beta-lactamase OXA-10 (P14489 whole entry): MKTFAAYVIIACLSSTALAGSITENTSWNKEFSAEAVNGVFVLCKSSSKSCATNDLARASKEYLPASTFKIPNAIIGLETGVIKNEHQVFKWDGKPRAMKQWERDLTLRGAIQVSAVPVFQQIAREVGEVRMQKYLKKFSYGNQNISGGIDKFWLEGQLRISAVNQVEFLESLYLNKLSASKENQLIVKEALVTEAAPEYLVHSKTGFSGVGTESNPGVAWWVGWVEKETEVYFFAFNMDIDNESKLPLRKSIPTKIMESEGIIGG
# [8] = test system: Pseudomonas aeruginosa PAO1; assay: Inhibition of recombinant Psedomonas aeruginosa PAO1 N-terminal His-tagged AmpC expressed in Escherichia coli BL21 (DE3) cells using FC5 as substrate preincubated up to 360 mins prior to substrate addition in presence or absence of Triton X-100 by fluorescence-based assay
# [9] = Binding affinity to recombinant bacterial VIM-2 expressed in Escherichia coli BL21 (DE3) cells by NMR method; design: species or system Bacteria
# [10] = Aqueous solubility of the compound in phosphate buffer at pH 7.0; type: physicochemical
# Liver = assay: Drug metabolism in human liver microsomes; type: ADME, microsome
Structure (SMILES),IC50 [2] [nM],IC50 [3] [nM],IC50 [4] [nM],MIC [6] [µg/mL],MIC [7] [µg/mL],further results
O=C(O)c1ccc(-c2ccc(F)cc2)cc1CS,710,300,230,–,–,IC50 [1]: 0.78 to 7.8 µM; IC50 (Beta-lactamase TEM): 32.8 µM; IC50 [5]: 0.78 to 7.8 µM
O=C(O)c1ccc(-c2cc(C(F)(F)F)cc(C(F)(F)F)c2)cc1CS,44000,1720,450,> 128,> 128,Activity (Bacteria): inactive
CCOc1cccc(-c2ccc(C(=O)O)c(CS)c2)c1,7590,320,180,64,16,–
O=C(O)c1ccc(-c2cccc(Cl)c2Cl)cc1CS,1160,370,40,–,–,IC50 (Beta-lactamase TEM): 5.5 µM; IC50 (Beta-lactamase OXA-10): 37.3 µM; inhibition [8]: Active; Kd [9]: < 1000 nM
O=C(O)Cc1ccccc1S,–,–,> 100000,–,–,–
O=C(O)c1ccc(-c2ccsc2)cc1CS,6780,180,170,16,8,–
O=C(O)c1ccc(-c2ccco2)cc1CS,10200,390,360,32,64,–
O=C(O)c1ccc(-c2cccc(F)c2)cc1CS,590,390,200,–,–,IC50 [1]: 0.78 to 7.8 µM; IC50 [5]: 0.78 to 7.8 µM; IC50 (5' exonuclease Apollo): 185 µM
O=C1SCc2cc(-c3ccccc3)ccc21,–,–,> 100000,–,–,–
O=C(O)c1ccc(-c2ccccc2Cl)cc1CS,2850,300,180,–,–,IC50 [1]: 0.78 to 7.8 µM; inhibition [8]: Active; IC50 [5]: 0.78 to 7.8 µM
O=C(O)c1ccc(-c2ccccc2)cc1CS,5590,230,230,16,32,solubility [10]: Soluble; Drug metabolism (Liver): Metabolite_Detected; IC50 (5' exonuclease Apollo): 149 µM

# Further lines, with some results ahead:
IC50 [2] [nM],IC50 [3] [nM],IC50 [4] [nM],MIC [6] [µg/mL],MIC [7] [µg/mL],Structure (SMILES),further results
420,60,100,–,–,O=C(O)c1ccc(-c2ccc(Cl)cc2)cc1CS,IC50 [1]: 0.78 to 7.8 µM; IC50 [5]: 0.78 to 7.8 µM
310,140,70,–,–,O=C(O)c1ccc(-c2cccc(Cl)c2)cc1CS,IC50 [1]: 0.78 to 7.8 µM; IC50 [5]: 0.78 to 7.8 µM; IC50 (5' exonuclease Apollo): 268 µM
2420,220,70,32,32,O=C(O)c1ccc(-c2ccc3ccccc3c2)cc1CS,–
8820,480,150,–,–,O=C(O)c1ccc(-c2ccccc2C(F)(F)F)cc1CS,–
> 100000,800,170,32,64,O=C(O)c1ccc(Br)cc1CS,–
570,50,100,32,64,CCc1ccc(-c2ccc(C(=O)O)c(CS)c2)cc1,–
